Measurements as given in US11267825B2 (AICURIS GMBH & CO. KG, priority 2017, dated 2022).
Read-outs that look alike come from different tables or passages of the source.

Columns and labels:
HBV = assay: Determination of HBV DNA from the supernatants of HepAD38 cells (anti-HBV activity); assay type: cell-based, hepatitis B virus; conditions: HBV DNA in HepAD38 supernatant at day 6, read-out: Cell Activity (EC50)
How it was run: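 HepAD38 cells (60,000/well) were treated with half-log compound dilutions in tetracycline-free medium to induce HBV production. On day 6, HBV DNA was purified from filtered supernatant and quantified by real-time PCR against plasmid standards. EC50 values came from non-linear regression of relative copy numbers, typically from three experiments in triplicate.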

HepAD38 cells = assay: Cell viability assay (AlamarBlue) in HepAD38 cells; conditions: HepAD38 cells in the presence of 0.3 μg/ml tetracycline, six days incubation
HBV core protein = HBV core protein (UniProt P03146); assay type: biochemical; conditions: read-out: Assembly Activity (IC50); BODIPY-FL labelled core protein, assembly started with NaCl, read after 6 min
How it was run: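 Fluorescence-quenching assembly assay using E. coli-expressed core protein 1–149 plus Cys150, labelled with BODIPY-FL maleimide, at 1.0–2.0 μM in 50 mM HEPES pH 7.5, 0.5% DMSO. Assembly started with NaCl to […]; fluorescence (ex 477/em 525 nm) read after 6 min. EC50 by non-linear regression, 8-point 0.5-log dilutions.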

HBV core protein, sequence (P03146 whole entry, looked up): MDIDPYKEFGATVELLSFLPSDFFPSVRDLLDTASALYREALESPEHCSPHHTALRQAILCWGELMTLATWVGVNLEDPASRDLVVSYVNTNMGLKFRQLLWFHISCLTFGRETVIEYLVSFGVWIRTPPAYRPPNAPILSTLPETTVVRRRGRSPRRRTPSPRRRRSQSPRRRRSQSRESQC

Row | Compound | EC50 (HBV) | CC50 (HepAD38 cells) | EC50 (HBV; Hepatitis B virus, 144 h) | IC50 (HBV core protein)
1 | O=C(Nc1nc2c(s1)CN(C(=O)c1cc3ccccc3[nH]1)CC2)C1[C@H]2COC[C@@H]12 (stereo partly drawn) [Example 361, (1R,5S,6S)—N-[5-(1H-indole-2-carbonyl)-4H,5H,6H,7H-[1,3]thiazolo[5,4-c]pyridin-2-yl]-3-oxabicyclo[3.1.0]hexane-6-carboxamide] | < 1 µM | > 10 µM |  | 
2 | O=C(c1cc2c(F)cc(F)cc2[nH]1)N1CCc2nc(N[C@H]3C[C@H](O)C3)sc2C1 [Example 378, (1r,3r)-3-{[5-(4,6-difluoro-1H-indole-2-carbonyl)-4H,5H,6H,7H-[1,3]thiazolo[5,4-c]pyridin-2-yl]amino}cyclobutan-1-ol] | < 1 µM | > 10 µM |  | 
3 | CCc1cccc2[nH]c(C(=O)N3CCc4nc(N[C@H]5C[C@H](O)C5)sc4C3)cc12 [Example 380, (1r,3r)-3-{[5-(4-ethyl-1H-indole-2-carbonyl)-4H,5H,6H,7H-[1,3]thiazolo[5,4-c]pyridin-2-yl]amino}cyclobutan-1-ol] | < 1 µM | > 10 µM |  | 
4 | Cc1cc(F)cc2[nH]c(C(=O)N3CCc4nc(N[C@H]5C[C@H](O)C5)sc4C3)cc12 [Example 379, (1r,3r)-3-{[5-(6-fluoro-4-methyl-1H-indole-2-carbonyl)-4H,5H,6H,7H-[1,3]thiazolo[5,4-c]pyridin-2-yl]amino}cyclobutan-1-ol] | < 1 µM | > 10 µM |  | 
5 | tert-butyl 3-{[5-(1H-indole-2-carbonyl)-4H,5H,6H,7H-[1,3]thiazolo[5,4-c]pyridin-2-yl]carbamoyl}azetidine-1-carboxylate [Example 387] | < 1 µM | > 10 µM |  | 
6 | O=C(c1cc2c(F)c(F)ccc2[nH]1)N1CCc2nc(N[C@H]3C[C@H](O)C3)sc2C1 [Example 377, (1r,3r)-3-{[5-(4,5-difluoro-1H-indole-2-carbonyl)-4H,5H,6H,7H-[1,3]thiazolo[5,4-c]pyridin-2-yl]amino}cyclobutan-1-ol] | < 1 µM | > 10 µM |  | 
7 | O=C(c1cc2c(Cl)cccc2[nH]1)N1CCc2nc(N[C@H]3C[C@H](O)C3)sc2C1 [Example 381, (1r,3r)-3-{[5-(4-chloro-1H-indole-2-carbonyl)-4H,5H,6H,7H-[1,3]thiazolo[5,4-c]pyridin-2-yl]amino}cyclobutan-1-ol] | < 1 µM | > 10 µM |  | 
8 | O=C(c1cc2ccccc2[nH]1)N1CCc2nc(N[C@H]3C[C@@H](O)C3)sc2C1 [Example 388, (1s,3s)-3-{[5-(1H-indole-2-carbonyl)-4H,5H,6H,7H-[1,3]thiazolo[5,4-c]pyridin-2-yl]amino}cyclobutan-1-ol] | < 1 µM | > 10 µM |  | 
9 | CCc1cc(F)cc2[nH]c(C(=O)N3CCc4nc(N[C@H]5C[C@H](O)C5)sc4C3)cc12 [Example 376, (1r,3r)-3-{[5-(4-ethyl-6-fluoro-1H-indole-2-carbonyl)-4H,5H,6H,7H-[1,3]thiazolo[5,4-c]pyridin-2-yl]amino}cyclobutan-1-ol] | < 1 µM | > 10 µM |  | 
10 | O=C(Nc1nc2c(s1)CN(C(=O)c1cc3c(Cl)cc(F)cc3[nH]1)CC2)C1CCOCC1 [Example 320, N-[5-(4-chloro-6-fluoro-1H-indole-2-carbonyl)-4H,5H,6H,7H-[1,3]thiazolo[5,4-c]pyridin-2-yl]oxane-4-carboxamide] |  |  | < 1 µM | 5 to 10 µM
11 | O=C(Nc1nc2c(s1)CN(C(=O)c1cc3c(Cl)cccc3[nH]1)CC2)C1CCOCC1 [Example 316, N-[5-(4-chloro-1H-indole-2-carbonyl)-4H,5H,6H,7H-[1,3]thiazolo[5,4-c]pyridin-2-yl]oxane-4-carboxamide] |  |  | < 1 µM | < 5 µM
12 | Cc1ccc(F)c2[nH]c(C(=O)N3CCc4nc(NCC5CCOC5)sc4C3)cc12 (stereo not shown) [Example 114, 5-(7-fluoro-4-methyl-1H-indole-2-carbonyl)-N-[(oxolan-3-yl)methyl]-4H,5H,6H,7H-[1,3]thiazolo[5,4-c]pyridin-2-amine] |  |  | < 1 µM | 5 to 10 µM
13 | C=Cc1cccc2[nH]c(C(=O)N3CCc4nc(N)sc4C3)cc12 [Example 13, 5-(4-ethenyl-1H-indole-2-carbonyl)-4H,5H,6H,7H-[1,3]thiazolo[5,4-c]pyridin-2-amine] |  |  | 1 to 10 µM | 5 to 10 µM
14 | O=C(c1cc2ccc(Br)cc2[nH]1)N1CCc2nc(NCC3CCOC3)sc2C1 (stereo not shown) [Example 113, 5-(6-bromo-1H-indole-2-carbonyl)-N-[(oxolan-3-yl)methyl]-4H,5H,6H,7H-[1,3]thiazolo[5,4-c]pyridin-2-amine] |  |  | < 1 µM | < 5 µM
15 | NC(=O)CNc1nc2c(s1)CN(C(=O)c1cc3ccccc3[nH]1)CC2 [Example 278, 2-{[5-(1H-indole-2-carbonyl)-4H,5H,6H,7H-[1,3]thiazolo[5,4-c]pyridin-2-yl]amino}acetamide] |  |  | 1 to 10 µM | < 100 µM
16 | O=C(c1cc2c(Cl)cccc2[nH]1)N1CCc2nc(NCC3(CO)CC3)sc2C1 [Example 63, [1-({[5-(4-chloro-1H-indole-2-carbonyl)-4H,5H,6H,7H-[1,3]thiazolo[5,4-c]pyridin-2-yl]amino}methyl)cyclopropyl]methanol] |  |  | < 1 µM | < 5 µM
17 | O=C(c1cc2ccccc2[nH]1)N1CCc2nc(CN3CCOCC3)sc2C1 [Example 39, 2-{2-[(morpholin-4-yl)methyl]-4H,5H,6H,7H-[1,3]thiazolo[5,4-c]pyridine-5-carbonyl}-1H-indole] |  |  | < 1 µM | < 5 µM
18 | O=C(c1cc2ccccc2[nH]1)N1CCc2nc(NC[C@H]3C[C@@H]4CC[C@H]3O4)sc2C1 (racemic) [Example 34, (+/−)-cis-5-(1H-indole-2-carbonyl)-N-{1[(1R,2R,4S)-7-oxabicyclo[2.2.1]heptan-2-yl]methyl}-4H,5H,6H,7H-[1,3]thiazolo[5,4-c]pyridin-2-amine] |  |  | < 1 µM | < 5 µM
19 | COC(C)(CO)CNc1nc2c(s1)CN(C(=O)c1cc3ccccc3[nH]1)CC2 (stereo not shown) [Example 283, 3-{[5-(1H-indole-2-carbonyl)-4H,5H,6H,7H-[1,3]thiazolo[5,4-c]pyridin-2-yl]amino}-2-methoxy-2-methylpropan-1-ol] |  |  | < 1 µM | 5 to 10 µM
20 | O=C(c1cc2c(Cl)ccc(F)c2[nH]1)N1CCc2nc(NCC3CCOC3)sc2C1 (stereo not shown) [Example 116, 5-(4-chloro-7-fluoro-1H-indole-2-carbonyl)-N-[(oxolan-3-yl)methyl]-4H,5H,6H,7H-[1,3]thiazolo[5,4-c]pyridin-2-amine] |  |  | < 1 µM | 5 to 10 µM
21 | CN1CCOC(CNc2nc3c(s2)CN(C(=O)c2cc4ccccc4[nH]2)CC3)C1 (stereo not shown) [Example 23, 5-(1H-indole-2-carbonyl)-N-[(4-methylmorpholin-2-yl)methyl]-4H,5H,6H,7H-[1,3]thiazolo[5,4-c]pyridin-2-amine] |  |  | 1 to 10 µM | 5 to 10 µM
22 | Nc1nc2c(s1)CN(C(=O)c1cc3cc(F)ccc3[nH]1)CC2 [Example 196, 5-(5-fluoro-1H-indole-2-carbonyl)-4H,5H,6H,7H-[1,3]thiazolo[5,4-c]pyridin-2-amine] |  |  | 1 to 10 µM | < 5 µM
23 | O=C(c1cc2ccccc2[nH]1)N1CCc2nc(-c3ncccn3)sc2C1 [Example 202, 2-[2-(pyrimidin-2-yl)-4H,5H,6H,7H-[1,3]thiazolo[5,4-c]pyridine-5-carbonyl]-1H-indole] |  |  | 1 to 10 µM | 5 to 10 µM
